From ChEMBL document CHEMBL1125556, “Fluoroquinolones: relationships between structural variations, mammalian cell cytotoxicity, and antimicrobial activity” (J Med Chem, 1992)
≈ marks a conversion by molar mass, not a printed value.

What was measured:
V79 = experiment: Mammalian cell cytotoxicity test in chinese hamster V79 cells (clonogenic cytotoxicity); format: functional, cell-based
[1] = Antibacterial activity against five Gram-negative bacteria; format: functional
[2] = Cricetulus griseus, V79, read-out: IC50

Row | SMILES | IC50 (V79; [2]) [µg/mL] | MIC ([1]; read-out: MIC) [µg/mL] | IC50 (V79; v79) [µg/mL] | MIC [1] [µg/mL]
1 | NC1CCN(c2nc3c(cc2F)c(=O)c(C(=O)O)cn3C2CC2)C1 (configuration not stated) | 98 (≈ 295 µM) | 0.03 (≈ 0.0903 µM) |  | 
2 | NC1CCN(c2c(F)cc3c(=O)c(C(=O)O)cn(C4CC4)c3c2Cl)C1 (stereo in doubt; 33a) [CLINAFLOXACIN] |  |  | 26 (≈ 71.1 µM) | 
3 | CCNCC1CCN(c2c(F)cc3c(=O)c(C(=O)O)cn(CC4CC4)c3c2F)C1 (configuration not stated) | 240 (≈ 592 µM) | 4.17 (≈ 10.3 µM) |  | 
4 | CNCC1(C)CCN(c2c(F)cc3c(=O)c(C(=O)O)cn(C4CC4)c3c2C(F)(F)F)C1 (configuration not stated) | 230 (≈ 521 µM) | > 30 |  | 
5 | CCNCC1CCN(c2c(F)c(F)c3c(=O)c(C(=O)O)cn(C4CC4)c3c2F)C1 (configuration not stated) | 46 (≈ 112 µM) | 0.56 (≈ 1.37 µM) |  | 
6 | COc1c(N2CCC(C)(CN)C2)c(F)cc2c(=O)c(C(=O)O)cn(C3CC3)c12 (configuration not stated) | 38 (≈ 97.6 µM) | 0.26 (≈ 0.668 µM) |  | 
7 | NC1CCN(c2c(F)c(F)c3c(=O)c(C(=O)O)cn(C4CC4)c3c2C(F)(F)F)C1 (configuration not stated) | 190 (≈ 455 µM) | 25 (≈ 59.9 µM) |  | 
8 | CCNCC1CCN(c2cc3c(cc2F)c(=O)c(C(=O)O)cn3C2CC2)C1 (stereo in doubt; 66) |  |  | 160 (≈ 428 µM) | 
9 | CCNCC1CCN(c2c(F)cc3c(=O)c(C(=O)O)cn(C4CC4)c3c2C(F)(F)F)C1 (configuration not stated) | 120 (≈ 272 µM) | 0.6 (≈ 1.36 µM) |  | 
10 | Nc1c(F)c(N2CCC(N)C2)cc2c1c(=O)c(C(=O)O)cn2C1CC1 (configuration not stated) | 54 (≈ 156 µM) | 0.04 (≈ 0.115 µM) |  | 
11 | NC1CCCN(c2c(F)cc3c(=O)c(C(=O)O)cn(C4CC4)c3c2C(F)(F)F)C1 (configuration not stated) | > 500 | 0.52 (≈ 1.26 µM) |  | 
12 | COc1c(N2CCCC2)c(F)cc2c(=O)c(C(=O)O)cn(C3CC3)c12 | 150 (≈ 433 µM) | 0.3 (≈ 0.866 µM) |  | 
13 | NC1CCN(c2nc3c(cc2F)c(=O)c(C(=O)O)cn3-c2ccc(F)cc2F)C1 (configuration not stated) [TOSUFLOXACIN] | 128 (≈ 317 µM) | 0.09 (≈ 0.223 µM) |  | 
14 | NC1CCN(c2c(F)cc3c(=O)c(C(=O)O)cn(C4CC4)c3c2F)C1 (stereo in doubt; 21) | 30 (≈ 85.9 µM) | 0.04 (≈ 0.115 µM) |  | 
15 | CC1(CN)CCN(c2c(F)cc3c(=O)c(C(=O)O)cn(C4CC4)c3c2Cl)C1 (configuration not stated) | 8 (≈ 20.3 µM) | 0.07 (≈ 0.178 µM) |  | 
16 | CCn1cc(C(=O)O)c(=O)c2cc(F)c(N3CCNCC3)cc21 [NORFLOXACIN] | > 500 | 0.06 (≈ 0.188 µM) |  | 
17 | CCn1cc(C(=O)O)c(=O)c2cc(F)c(N3CCN(C)CC3)cc21 [PEFLOXACIN] |  | 0.07 (≈ 0.21 µM) |  | 
18 | CCNCC1CCN(c2c(F)cc3c(=O)c(C(=O)O)cn(CC)c3c2F)C1 (configuration not stated) [MERAFLOXACIN] | 160 (≈ 422 µM) | 0.2 (≈ 0.527 µM) |  | 
19 | NC1CCN(c2c(F)cc3c(=O)c(C(=O)O)cn(-c4ccc(F)cc4F)c3c2C(F)(F)F)C1 (configuration not stated) | 99 (≈ 210 µM) | 0.52 (≈ 1.1 µM) |  | 

Row | SMILES | IC50 (V79; [2]) [µg/mL] | MIC ([1]; read-out: MIC) [µg/mL] | IC50 (V79; v79) [µg/mL] | MIC [1] [µg/mL]
20 | COc1c(N2CCC(C)(N)C2)c(F)cc2c(=O)c(C(=O)O)cn(-c3ccc(F)cc3F)c12 (configuration not stated) | 250 (≈ 559 µM) | 0.46 (≈ 1.03 µM) |  | 
21 | NC1CCN(c2c(F)cc3c(=O)c(C(=O)O)cn(C4CC4)c3c2F)C1 (stereo in doubt; 24b) |  |  | 30 (≈ 85.9 µM) | 0.04 (≈ 0.115 µM)
22 | CCNCC1CCN(c2c(F)c(NC(C)=O)c3c(=O)c(C(=O)O)cn(C4CC4)c3c2F)C1 (configuration not stated) | > 500 | > 25 |  | 
23 | CCc1c(F)c(N2CCC(N)C2)cc2c1c(=O)c(C(=O)O)cn2C1CC1 (configuration not stated) | 46 (≈ 128 µM) | 1.81 (≈ 5.04 µM) |  | 
24 | NC1CCN(c2c(F)cc3c(=O)c(C(=O)O)cn(C4CC4)c3c2C(F)(F)F)C1 (stereo in doubt; 45) | 300 (≈ 751 µM) | 0.2 (≈ 0.501 µM) |  | 
25 | NC1CCN(c2c(F)cc3c(=O)c(C(=O)O)cn(C4CC4)c3c2[N+](=O)[O-])C1 (configuration not stated) | 69 (≈ 183 µM) | 0.46 (≈ 1.22 µM) |  | 
26 | CCNCC1CCN(c2c(F)cc3c(=O)c(C(=O)O)cn(C4CC4)c3c2N)C1 (configuration not stated) | 290 (≈ 747 µM) | 0.91 (≈ 2.34 µM) |  | 
27 | Cc1c(F)c(N2CCC(N)C2)c(F)c2c1c(=O)c(C(=O)O)cn2C1CC1 (configuration not stated) | 11 (≈ 30.3 µM) | 0.02 (≈ 0.055 µM) |  | 
28 | O=C(O)c1cn(C2CC2)c2c(F)c(N3CCNCC3)c(F)cc2c1=O | 47 (≈ 135 µM) | 0.07 (≈ 0.2 µM) |  | 
29 | CNCC1(C)CCN(c2cc3c(cc2F)c(=O)c(C(=O)O)cn3C2CC2)C1 (configuration not stated) | 205 (≈ 549 µM) | 0.4 (≈ 1.07 µM) |  | 
30 | CCNCC1CCN(c2cc3c(cc2F)c(=O)c(C(=O)O)cn3NC)C1 (configuration not stated) | > 500 | 12.5 (≈ 34.5 µM) |  | 
31 | NC1CCN(c2cc3c(c(O)c2F)c(=O)c(C(=O)O)cn3C2CC2)C1 (configuration not stated) | 72 (≈ 207 µM) | 0.04 (≈ 0.115 µM) |  | 
32 | CCNCC1CCN(c2c(F)cc3c(=O)c(C(=O)O)cn(C4CC4)c3c2Cl)C1 (stereo in doubt; 26c) |  | 0.14 (≈ 0.343 µM) | 11 (≈ 27 µM) | 
33 | CC1(N)CCN(c2c(F)cc3c(=O)c(C(=O)O)cn(C4CC4)c3c2C(F)(F)F)C1 (configuration not stated) | 110 (≈ 266 µM) | 1 (≈ 2.42 µM) |  | 
34 | CCNCC1CCN(c2c(F)cc3c(=O)c(C(=O)O)cn(C4CC4)c3c2Cl)C1 (stereo in doubt; 69) |  |  |  | 0.14 (≈ 0.343 µM)
35 | CCNCC1CCN(c2cc3c(cc2F)c(=O)c(C(=O)O)cn3C2CC2)C1 (stereo in doubt; 16) |  |  |  | 0.46 (≈ 1.23 µM)
36 | CCNCC1CCN(c2c(F)cc3c(=O)c(C(=O)O)cn(C4CC4)c3c2F)C1 (stereo in doubt; 26b) [PD-117558] |  |  | 11 (≈ 28.1 µM) | 
37 | COc1c(N2CCC(N)C2)c(F)cc2c(=O)c(C(=O)O)cn(C3CC3)c12 (stereo in doubt; 35a) | 45 (≈ 125 µM) |  |  | 
